This test deals with T1, arginase activity in intact BMM-M2 cells (Mus musculus, UniProt Q61176).
T1 construct: endogenous in cells; host or cells: bone-marrow derived macrophages from male C57BL/6 mice, polarised to M2 with IL-4
T1 sequence (Q61176 1-323): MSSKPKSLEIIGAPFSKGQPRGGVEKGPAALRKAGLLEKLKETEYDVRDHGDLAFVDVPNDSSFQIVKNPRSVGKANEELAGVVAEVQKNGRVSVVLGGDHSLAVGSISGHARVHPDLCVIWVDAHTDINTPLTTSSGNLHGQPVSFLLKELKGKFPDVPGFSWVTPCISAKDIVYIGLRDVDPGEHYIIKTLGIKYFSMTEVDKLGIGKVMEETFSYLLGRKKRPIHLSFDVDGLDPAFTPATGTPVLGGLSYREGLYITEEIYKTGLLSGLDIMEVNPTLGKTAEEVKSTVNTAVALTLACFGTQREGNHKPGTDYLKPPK
In words: Cell-based arginase assay: urea production by cultured BMM-M2 cells. The conditions noted are these: 10 μM test compound, 24 h; for inhibition at 10 µM: read-out: Inh. urea production @10 μM (%). As for the experimental part: Murine bone-marrow derived macrophages (BMM) represent a convenient in vitro model that enables differentiation of these cells towards M1 or M2 macrophages. Briefly, male C57BL/6 mice 7-8 weeks old were euthanized by carbon dioxide asphyxiation. Femur and tibiae bones were removed under aseptic conditions and collected in a plate containing sterile ice-cold PBS 1×. After sterilization of bones in 70% ethanol during 1 min, bones were placed into a clean Petri dish containing fresh sterile ice-cold PBS 1×. The ends of each bone were cut and the marrow cavity was flushed using forceps and syringes filled with pre-warmed complete α-MEM growing medium (α-MEM without red phenol (Life Technologies, Cat. No. #41061-029) supplemented with 10% FBS, penicillin and streptomycin). Bone marrow (BM) cells were harvested in a 15 ml clean tube and centrifuged at 400 g for 8 min at RT. Supernatant was discarded and BM pellet was re-suspended in 5 ml Ammonium-Chloride-Potassium (ACK) buffer for 5 minutes at RT to lysis RBC. BM cell suspension was centrifuged at 400 g for 8 min at RT. Supernatant was discarded and BM cell pellet was re-suspended in complete α-MEM growing medium and passed through a 70 μm cell restrainer to eliminate solid contaminates and cellular aggregates. BM cells were seeded in 8 ml of complete α-MEM growing medium supplemented with 100 ng/ml recombinant mouse M-CSF (R&D Systems, Cat. No. #416-ML-050) in 100-mm dishes. BM cells were cultured overnight to get rid of contaminating stromal cells in a humidified incubator with 5% CO2 at 37° C. At the following day, non-adherent cells were collected in a clean 15-ml tube and centrifuged at 400 g for 8 min at RT. Cell pellet was re-suspended in complete α-MEM growing medium and counted using a hemocytometer Neubauer's chamber. Hematopoietic precursor cells were differentiated into BMM in presence of complete α-MEM growing medium supplemented 50 ng/ml M-CSF for 3 days. Finally to polarize BMM towards M2 phenotype, cells were incubated in presence 20 ng/ml of recombinant mouse IL-4 (R&D Systems, Cat. No. #404-ML-010) added to fresh complete α-MEM growing medium supplemented 50 ng/ml M-CSF for 24 h.
At the day of the experiment, BMM-M2 were treated for 24 h with vehicle (DMSO) or compounds of the invention at 1 and 10 μM prepared in fresh complete α-MEM growing medium supplemented 50 ng/ml M-CSF, 20 ng/ml IL-4 and 10 mM L-arginine (Cat. No. #A5006, Sigma Aldrich). At the next day, 70 μl aliquots of each treated culture media (supernatants) were transferred into a clear 96-well plate. Measurements of urea produced by BMM-M2 were performed using the adapted protocol detailed in Example B1. Wells without BMM-M2 containing only treatment media (vehicle) were used to determine the zero cell-derived urea production (blank). All treatments were carried out in triplicates.
The inhibition of urea production was calculated subtracting the absorbance from the blank to the absorbance from all treatments and it was expressed as the percentage of the absorbance from the reaction containing the test article treatment with respect to the absorbance from vehicle treatment (maximum of urea production).

Some results are limits rather than exact numbers.

`NC(CCCCB(O)O)(C(=O)O)C1CCN(C2CCc3ccccc32)CC1` (single isomer, unassigned) [Compound 2, 2-amino-6-borono-2-(1-(2,3-dihydro-1H-inden-1-yl)piperidin-4-yl)hexanoic acid]: the “Inh. urea production @10 μM (%)” value (10 µM) was “+++ (% inhibition > 25 at 10 μM test compound)”. With `NC(CCCCB(O)O)(C(=O)O)C1CCN(C2CCc3ccccc32)CC1` (single isomer, unassigned) [Compound 3, 2-amino-6-borono-2-(1-(2,3-dihydro-1H-inden-1-yl)piperidin-4-yl)hexanoic acid], the inhibition at 10 µM was below 15%. For `NC(CCCCB(O)O)(C(=O)O)C1CCN(C2CCCc3ccccc32)CC1` (single isomer, unassigned) [Compound 4, 2-amino-6-borono-2-(1-(1,2,3,4-tetrahydronaphthalen-1-yl)piperidin-4-yl)hexanoic acid], the inhibition at 10 µM was above 25%. Regarding `NC(CCCCB(O)O)(C(=O)O)C1CCN(C2CCCc3ccccc32)CC1` (single isomer, unassigned) [Compound 5, 2-amino-6-borono-2-(1-(1,2,3,4-tetrahydronaphthalen-1-yl)piperidin-4-yl)hexanoic acid], the inhibition at 10 µM is above 25%. Consider `NC(CCCCB(O)O)(C(=O)O)C1CCN(C2CCCc3ccccc32)CC1` (single isomer, unassigned) [Compound 6, 2-amino-6-borono-2-(1-(1,2,3,4-tetrahydronaphthalen-1-yl)piperidin-4-yl)hexanoic acid], for which the “Inh. urea production @10 μM (%)” value (10 µM) is “+ (% inhibition < 15 at 10 μM)”. Turning to `CC(c1ccccc1)N1CCC(C(N)(CCCCB(O)O)C(=O)O)CC1` (single isomer, unassigned) [Compound 10, 2-amino-6-borono-2-(1-(1-phenylethyl)piperidin-4-yl)hexanoic acid], the inhibition at 10 µM is above 25%. Consider `CC(c1ccccc1)N1CCC(C(N)(CCCCB(O)O)C(=O)O)CC1` (single isomer, unassigned) [Compound 11, 2-amino-6-borono-2-(1-(1-phenylethyl)piperidin-4-yl)hexanoic acid], for which the “Inh. urea production @10 μM (%)” value (10 µM) was “+ (% inhibition < 15 at 10 μM)”. `NC(CCCCB(O)O)(C(=O)O)C1CCN(C2CCc3cc(Cl)ccc32)CC1` (single isomer, unassigned) [Compound 14, 2-amino-6-borono-2-[1-(5-chloroindan-1-yl)-4-piperidyl]hexanoic acid]: the inhibition at 10 µM is above 25%. As to `NC(CCCCB(O)O)(C(=O)O)C1CCN(C2CCCc3cc(Cl)ccc32)CC1` (single isomer, unassigned) [Compound 17, 2-amino-6-borono-2-(1-(6-chloro-1,2,3,4-tetrahydronaphthalen-1-yl)piperidin-4-yl)hexanoic acid], the inhibition at 10 µM is above 25%. `CNC(CCCCB(O)O)(C(=O)O)C1CCN(C2CCCc3ccccc32)CC1` (single isomer, unassigned) [Compound 79, 6-borono-2-(methylamino)-2-(1-(1,2,3,4-tetrahydronaphthalen-1-yl)piperidin-4-yl)hexanoic acid]: the inhibition at 10 µM was above 25%. `NC(CCCCB(O)O)(C(=O)O)C1CCN(C2CCCc3ccc(F)cc32)CC1` (single isomer, unassigned) [Compound 83, 2-amino-6-borono-2-(1-(7-fluoro-1,2,3,4-tetrahydronaphthalen-1-yl)piperidin-4-yl)hexanoic acid]: the inhibition at 10 µM was above 25%.

With `NC(CCCCB(O)O)(C(=O)O)C1CCN(C2CCCCc3ccccc32)CC1` (single isomer, unassigned) [Compound 84, 2-amino-6-borono-2-(1-(6,7,8,9-tetrahydro-5H-benzo[7]annulen-5-yl)piperidin-4-yl)hexanoic acid], the inhibition at 10 µM was above 25%. As to `NC(CCCCB(O)O)(C(=O)O)C1CCN(C2CCc3cc(C(F)(F)F)ccc32)CC1` (single isomer, unassigned) [Compound 85, 2-amino-6-borono-2-[1-[5-(trifluoromethyl)indan-1-yl]-4-piperidyl]hexanoic acid], the inhibition at 10 µM was above 25%. The same measure, in the same setting: under `NC(CCCCB(O)O)(C(=O)O)C1CCN(C2CCc3ccccc32)CC1` (stereo not shown) [Compound 1, 2-amino-6-borono-2-(1-(2,3-dihydro-1H-inden-1-yl)piperidin-4-yl)hexanoic acid] stands above 25%. For `CC(c1ccccc1)N1CCC(C(N)(CCCCB(O)O)C(=O)O)CC1` (stereo not shown) [Compound 9, 2-amino-6-borono-2-(1-(1-phenylethyl)piperidin-4-yl)hexanoic acid], the “Inh. urea production @10 μM (%)” value is given as “++ (25% < % inhibition < 15% at 10 μM test compound)”.

Consider `CC1(C)OB(CCCCC(N)(C(=O)O)C2CCN(C3CCCc4ccccc43)CC2)OC1(C)C` (stereo not shown) [Compound 77, 2-amino-2-(1-(1,2,3,4-tetrahydronaphthalen-1-yl)piperidin-4-yl)-6-(4,4,5,5-tetramethyl-1,3,2-dioxaborolan-2-yl)hexanoic acid], for which the “Inh. urea production @10 μM (%)” value was “++ (25% < % inhibition < 15% at 10 μM test compound)”.

These data come from patent publication US20220017541A1, “INHIBITORS OF ARGINASE” (Black Belt Tx Ltd, priority 2018, published 2022).
